Experimental data taken from patent publication US10517889B2, “Modulators of SMAD7 expression” (Ionis Pharmaceuticals, Inc., priority 2017, dated 2019).
Strand notation (5' to 3'): a small letter for the sugar, then the base; units joined by * are phosphorothioate-linked, units joined directly phosphodiester-linked; [ ] holds rarer units or linkages, { } end groups; capitals alone tell only the bases. k = constrained ethyl (cEt); [5mC] = 5-methylcytosine; d = 2'-deoxy (DNA)

System: human SMAD7 mRNA
Experiment: Antisense inhibition of human SMAD7 mRNA expression in Hep3B cells by 3-10-3 cEt gapmers, 10,000 nM, electroporation (Example 2)
Type: cell-based
Conditions: Hep3B cells, 10,000 nM antisense oligonucleotide, electroporation, approximately 24 hours, RT-PCR primer probe set RTS5062, relative to untreated control cells
Summary of the method: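 SMAD7 mRNA was measured by real-time PCR (RTS5062) with RiboGreen total-RNA normalization, about 24 h after 10,000 nM gapmer was delivered by electroporation into Hep3B cells at 20,000 per well. Gapmers were 16-mer 3-10-3 cEt, fully phosphorothioate; values are % inhibition versus untreated controls.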

First: 799853 (k[5mC]*k[5mC]*kA*dA*dG*dT*dG*dT*d[5mC]*d[5mC]*dA*dT*d[5mC]*kA*kA*kG; antisense) [compound 799853]
Second: 799996 (kG*kA*k[5mC]*d[5mC]*d[5mC]*dA*d[5mC]*dG*dG*dT*dT*dA*dA*kA*kT*kG; antisense) [compound 799996]
The “% Inhibition” value of the first is higher: 42% for the first, 36% for the second.

Same assay, conditions: Hep3B cells, electroporation with 10,000 nM antisense oligonucleotide, approximately 24 hours, RTS5062, percent inhibition of SMAD7 mRNA relative to untreated control cells

First: 799764 (antisense kA*k[5mC]*kG*d[5mC]*dT*dA*dA*dG*dG*dA*dA*dA*dA*kA*kG*k[5mC]) [compound 799764]
Second: 799291 (antisense kG*k[5mC]*kT*dG*dA*dT*dT*dA*dT*dT*dA*dA*dT*kG*kG*kT) [compound 799291]
The “% Inhibition” value of the first is higher: 19% for the first, 0% for the second.

First: 799666 (antisense k[5mC]*kA*kG*dA*dT*dG*d[5mC]*d[5mC]*dA*dG*d[5mC]*dA*dA*kG*kG*kA) [compound 799666]
Second: 799276 (antisense kG*kG*k[5mC]*dA*dG*d[5mC]*d[5mC]*dA*dG*dT*dT*dA*dA*kT*k[5mC]*kA) [compound 799276]
The “% Inhibition” value of the first is higher: 51% for the first, 29% for the second.

Going from “799750 (antisense kA*kG*k[5mC]*d[5mC]*dA*dA*dG*dA*dG*d[5mC]*dT*dG*d[5mC]*kT*kT*kG) [compound 799750]” to “799724 (antisense kA*kA*k[5mC]*dT*dT*dG*dG*dG*d[5mC]*dA*dA*dG*dG*kA*k[5mC]*kA) [compound 799724]”, the “% Inhibition” value rises from 0% to 24%.

“799809 (antisense k[5mC]*kA*kA*dT*dA*d[5mC]*dT*dG*dA*dA*dA*dT*dG*kA*kG*k[5mC]) [compound 799809]” was tested, and the “% Inhibition” value was 43%.

Same assay, conditions: Hep3B cells, electroporation with 10,000 nM antisense oligonucleotide, approximately 24 hours, SMAD7 mRNA by RT-PCR (RTS5062), relative to untreated control cells

Going from “830024 (antisense kT*kG*kT*dA*dA*dA*dT*d[5mC]*dG*dA*dA*dA*dG*k[5mC]*kA*kA) [compound 830024]” to “798754 (kA*kG*k[5mC]*d[5mC]*dT*dG*d[5mC]*dA*dG*dT*d[5mC]*d[5mC]*dA*kG*kG*k[5mC]; antisense) [compound 798754]”, the “% Inhibition” value falls from 40% to 16%.

Going from “830203 (kG*k[5mC]*kT*d[5mC]*dT*dG*dA*dA*dG*dG*d[5mC]*dT*dA*k[5mC]*kA*k[5mC]; antisense) [compound 830203]” to “799371 (antisense k[5mC]*k[5mC]*k[5mC]*dT*dT*dT*d[5mC]*d[5mC]*dA*dT*dT*dA*dT*kT*k[5mC]*k[5mC]) [compound 799371]”, the “% Inhibition” value falls from 40% to 28%.

Going from “830040 (antisense k[5mC]*kA*k[5mC]*dT*dT*d[5mC]*d[5mC]*dT*dA*dT*dT*dG*dG*k[5mC]*kT*kG) [compound 830040]” to “799254 (antisense kA*kA*kA*d[5mC]*dT*d[5mC]*d[5mC]*dA*dA*dA*dG*dG*dT*kG*k[5mC]*kG) [compound 799254]”, the “% Inhibition” value falls from 44% to 11%.

Going from “800019 (kG*kG*k[5mC]*dA*dA*dA*dA*d[5mC]*dT*d[5mC]*dA*d[5mC]*dA*kG*kT*k[5mC]; antisense) [compound 800019]” to “799451 (antisense kA*kA*kA*dG*dA*dA*d[5mC]*dA*d[5mC]*dA*dG*d[5mC]*dA*k[5mC]*kT*kG) [compound 799451]”, the “% Inhibition” value falls from 61% to 41%.

Going from “830167 (antisense kT*kT*kT*dA*d[5mC]*dA*d[5mC]*dA*d[5mC]*d[5mC]*d[5mC]*d[5mC]*dA*kG*kG*kG) [compound 830167]” to “799927 (antisense kT*k[5mC]*k[5mC]*d[5mC]*dA*dA*dG*d[5mC]*d[5mC]*dT*dA*d[5mC]*dA*kT*kA*kT) [compound 799927]”, the “% Inhibition” value falls from 39% to 0%.

Same assay, conditions: Hep3B cells, electroporation with 10,000 nM antisense oligonucleotide, approximately 24 hours, primer probe set RTS5062, relative to untreated control cells

First: 799034 (k[5mC]*kT*kT*dG*d[5mC]*d[5mC]*d[5mC]*dA*dG*dG*dT*dA*d[5mC]*kT*kG*k[5mC]; antisense) [compound 799034]
Second: 799079 (antisense kG*kA*kG*dA*dT*d[5mC]*d[5mC]*dA*dG*dG*dA*dG*d[5mC]*kA*kG*kA) [compound 799079]
The “% Inhibition” value of the first is lower: 12% for the first, 46% for the second.

First: 799042 (kT*kG*k[5mC]*dT*d[5mC]*d[5mC]*dT*dG*dG*d[5mC]*dA*dG*d[5mC]*kT*kG*k[5mC]; antisense) [compound 799042]
Second: 799135 (antisense kG*kG*kG*dA*d[5mC]*dT*dG*d[5mC]*dT*dA*dA*dG*d[5mC]*kA*kT*kG) [compound 799135]
The “% Inhibition” value of the first is lower: 33% for the first, 38% for the second.

For “798973 (antisense kT*k[5mC]*k[5mC]*dT*dA*dT*d[5mC]*dA*dG*dG*dG*dT*dG*kT*k[5mC]*k[5mC]) [compound 798973]”, the “% Inhibition” value was 30%.

First: 799399 (antisense kT*k[5mC]*k[5mC]*dA*dA*dA*dT*dT*dT*dG*dA*dA*dG*kA*kA*kT) [compound 799399]
Second: 799071 (antisense kG*kG*kA*dA*dG*dG*dG*dA*dA*dT*dA*dA*dG*kA*k[5mC]*kA) [compound 799071]
The “% inhibition of SMAD7 mRNA expression” value of the first is lower: 0% for the first, 44% for the second.

First: 799146 (antisense kT*kA*k[5mC]*d[5mC]*dT*dT*dG*dG*dG*dT*dT*dA*dT*kG*kA*k[5mC]) [compound 799146]
Second: 799105 (antisense k[5mC]*kT*kA*dA*dG*dT*d[5mC]*d[5mC]*dG*dG*dG*dA*dA*kA*kA*kA) [compound 799105]
The “% inhibition of SMAD7 mRNA expression” value of the first is lower: 0% for the first, 12% for the second.

Going from “799187 (antisense k[5mC]*kT*kT*d[5mC]*dT*d[5mC]*dT*dT*dG*dT*dT*d[5mC]*dA*kT*kT*kT) [compound 799187]” to “798965 (antisense kT*kG*k[5mC]*d[5mC]*d[5mC]*d[5mC]*dT*dT*d[5mC]*dT*dT*d[5mC]*d[5mC]*kA*kA*kA) [compound 798965]”, the “% inhibition of SMAD7 mRNA expression” value rises from 17% to 43%.

First: 799250 (antisense kT*kG*k[5mC]*dG*d[5mC]*dG*dG*d[5mC]*d[5mC]*dA*d[5mC]*dG*dA*k[5mC]*kA*kG) [compound 799250]
Second: 799440 (antisense kT*kA*kG*dA*dA*dA*dA*dG*dT*dT*dA*dA*dG*kA*kG*kG) [compound 799440]
The “% inhibition of SMAD7 mRNA expression” value of the first is lower: 21% for the first, 41% for the second.

“790489 (k[5mC]*kT*k[5mC]*dT*dT*dG*dA*d[5mC]*dT*dT*d[5mC]*d[5mC]*dG*kA*kG*kG; antisense) [compound 790489]” and “790623 (kG*k[5mC]*kA*dT*dT*dT*dA*dT*dA*dT*dT*dA*dA*kA*kG*k[5mC]; antisense) [compound 790623]” are the same in “% inhibition of SMAD7 mRNA expression” value: 0% for the first, 0% for the second.

“799361 (kG*kT*k[5mC]*d[5mC]*dT*dA*dT*dT*dT*dG*dG*dT*dT*k[5mC]*k[5mC]*k[5mC]; antisense) [compound 799361]” was tested, and the “% inhibition of SMAD7 mRNA expression” value was 77%.

Same assay, conditions: Hep3B cells, electroporation, 10,000 nM antisense oligonucleotide, approximately 24 hours, RTS5062, relative to untreated control cells

First: 799285 (antisense kG*kG*k[5mC]*dT*dT*d[5mC]*dA*d[5mC]*dT*dG*d[5mC]*d[5mC]*d[5mC]*kA*kT*k[5mC]) [compound 799285]
Second: 799740 (antisense kT*kT*kA*dA*dA*dT*dA*dA*d[5mC]*dT*dG*dT*d[5mC]*k[5mC]*kT*k[5mC]) [compound 799740]
The “% inhibition of SMAD7 mRNA expression” value of the first is lower: 36% for the first, 48% for the second.

First: 799792 (kA*k[5mC]*k[5mC]*dA*dA*dA*dA*d[5mC]*d[5mC]*d[5mC]*dG*dG*dG*kA*kG*kA; antisense) [compound 799792]
Second: 799817 (antisense kT*kA*k[5mC]*dT*dG*dA*dT*dT*d[5mC]*dA*dT*dG*dA*kG*kG*kG) [compound 799817]
The “% inhibition of SMAD7 mRNA expression” value of the first is lower: 31% for the first, 45% for the second.

Same assay, conditions: SMAD7 mRNA, Hep3B cells, 10,000 nM antisense oligonucleotide, electroporation, approximately 24 hours, primer probe set RTS5062, relative to untreated control cells

First: 829768 (antisense kG*k[5mC]*kA*dG*dG*dA*dG*dG*d[5mC]*dA*d[5mC]*dG*d[5mC]*kG*kG*kT) [compound 829768]
Second: 829732 (antisense k[5mC]*kA*kT*dG*dA*dA*dG*dA*dA*dG*dT*d[5mC]*dG*kG*kG*k[5mC]) [compound 829732]
The “% Inhibition” value of the first is higher: 41% for the first, 40% for the second.

Compared with “800793 (antisense kT*kG*kA*d[5mC]*dT*d[5mC]*dT*dT*dG*dT*dT*dG*dT*k[5mC]*k[5mC]*kG) [compound 800793]”, “829765 (antisense kG*k[5mC]*k[5mC]*dG*d[5mC]*dT*d[5mC]*d[5mC]*dT*dT*d[5mC]*dA*dG*kT*kT*kT) [compound 829765]” is lower in “% Inhibition” value: 53% for the first, 28% for the second.

Compared with “829754 (antisense kT*k[5mC]*kT*d[5mC]*d[5mC]*d[5mC]*d[5mC]*dG*d[5mC]*dA*dG*d[5mC]*dT*k[5mC]*kG*k[5mC]) [compound 829754]”, “829777 (antisense kG*kA*kG*d[5mC]*dG*dA*dG*dT*dA*dG*dG*dA*d[5mC]*kG*kA*kG) [compound 829777]” is lower in “% Inhibition” value: 49% for the first, 37% for the second.

First: 772593 (kA*k[5mC]*kG*d[5mC]*dA*d[5mC]*d[5mC]*dA*dG*dT*dG*dT*dG*kA*k[5mC]*k[5mC]; antisense) [compound 772593]
Second: 800883 (antisense kA*k[5mC]*k[5mC]*dA*dT*dT*dT*dA*dT*d[5mC]*dT*dG*dG*kT*kG*kT) [compound 800883]
The “% Inhibition” value of the first is lower: 42% for the first, 50% for the second.

Same assay, conditions: SMAD7 mRNA, Hep3B cells, electroporation with 10,000 nM antisense oligonucleotide, approximately 24 hours, primer probe set RTS5062, relative to untreated control cells

First: 830009 (antisense kG*kT*kG*dT*dT*dA*dA*dA*dG*d[5mC]*dT*dG*dA*kG*k[5mC]*k[5mC]) [compound 830009]
Second: 829990 (kG*kG*kG*d[5mC]*d[5mC]*dG*d[5mC]*dG*dA*dG*dG*d[5mC]*dG*kG*kT*kG; antisense) [compound 829990]
The “% Inhibition” value of the first is higher: 52% for the first, 35% for the second.

“830001 (kG*k[5mC]*k[5mC]*d[5mC]*dA*dA*d[5mC]*dT*dG*dT*dT*dT*dG*kT*k[5mC]*kT; antisense) [compound 830001]” was tested, and the “% Inhibition” value was 24%.
